“And” between values parts separate entries of the source, which are not always exact repeats. Equal entries are not always repeated. One block for each compound: values may come before it. The source made the active and inactive calls.
How the values were obtained:
[1] = molecular target: T1, DNA repair and recombination protein RAD54-like (Homo sapiens, UniProt Q92698); assay: inhibitors of human RAD54 branch migration, confirmation, biochemical, fluorescence, cherry-picked samples, dose series (AID 651657); type: functional
T1 sequence (Q92698 whole entry): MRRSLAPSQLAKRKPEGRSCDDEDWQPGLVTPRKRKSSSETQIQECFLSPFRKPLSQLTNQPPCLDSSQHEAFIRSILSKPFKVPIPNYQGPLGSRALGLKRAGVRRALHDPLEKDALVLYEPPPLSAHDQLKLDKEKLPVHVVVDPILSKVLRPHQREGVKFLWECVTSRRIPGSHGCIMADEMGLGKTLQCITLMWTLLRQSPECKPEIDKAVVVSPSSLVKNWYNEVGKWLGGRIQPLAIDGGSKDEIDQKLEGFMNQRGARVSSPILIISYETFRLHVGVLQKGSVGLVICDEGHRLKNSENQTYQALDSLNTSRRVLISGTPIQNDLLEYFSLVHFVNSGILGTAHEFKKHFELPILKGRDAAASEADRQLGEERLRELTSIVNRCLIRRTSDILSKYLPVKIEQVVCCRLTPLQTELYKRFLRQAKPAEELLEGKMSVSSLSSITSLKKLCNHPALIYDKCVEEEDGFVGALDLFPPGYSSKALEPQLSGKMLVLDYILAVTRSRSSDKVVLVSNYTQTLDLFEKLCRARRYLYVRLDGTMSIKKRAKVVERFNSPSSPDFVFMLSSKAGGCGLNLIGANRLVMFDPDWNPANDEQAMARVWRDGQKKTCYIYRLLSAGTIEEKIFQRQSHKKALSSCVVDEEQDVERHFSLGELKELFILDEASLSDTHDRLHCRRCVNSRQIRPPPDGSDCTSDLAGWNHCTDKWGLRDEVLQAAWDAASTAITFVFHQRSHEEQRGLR

[2] = molecular target: Cytochrome P450 2C9 (Homo sapiens, UniProt P11712)
[3] = molecular target: Cytochrome P450 3A4 (Homo sapiens, UniProt P08684);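 further: CYP3A4 tested as one member of a cytochrome P450 panel screen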
[4] = HepG2 cell cytotoxicity, dose response, cytotoxicity control for Shn3 inhibitor project, CellTiter-Glo, cherry-picked (AID 624134); type: functional, cell-based
[5] = molecular target: Heat shock protein HSP 90-alpha (Homo sapiens, UniProt P07900); type: functional, organism-based
[6] = Shn3 3'UTR reporter inhibitors, dose response, cell-based, Clone20 osteoblasts, firefly luciferase, cherry-picked (AID 624132); type: functional;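 further: firefly luciferase luminescence from reporter carrying the Shn3 3'UTR in osteoblasts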
[7] = control 3'UTR Renilla luciferase suppression, dose response, counter-screen for Shn3 inhibitor project, cell-based, Clone20-Shn3RL, cherry-picked (AID 624133); type: functional
[8] = off-target signal loss in HeLa-CEM21 co-culture – HeLa F-luc CTL cells, cherry-picked, counter-screen for HIV-1 Env fusion inhibitor project, dose response (AID 652040); type: functional, cell-based;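 further: potency for signal decrease marking cytotoxic or nonspecific inhibition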
[9] = Fluorescence-based cell-based high throughput dose response assay for inhibitors of the interaction of nucleotide-binding oligomerization domain containing 2 (NOD2) and the receptor-interacting serine-threonine kinase 2 (RIPK2).; type: functional; conditions: Homo sapiens
[10] = molecular target: T2, Short transient receptor potential channel 4 (Mus musculus, UniProt Q9QUQ5); assay: mouse TRPC4 channel inhibitors, dose response, cell-based, HEK293 TRPC4/mu-opioid, Fluo-4 calcium (AID 434942); type: functional;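 further: potency of inhibitors blocking the TRPC4 calcium response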
T2 sequence (Q9QUQ5 whole entry): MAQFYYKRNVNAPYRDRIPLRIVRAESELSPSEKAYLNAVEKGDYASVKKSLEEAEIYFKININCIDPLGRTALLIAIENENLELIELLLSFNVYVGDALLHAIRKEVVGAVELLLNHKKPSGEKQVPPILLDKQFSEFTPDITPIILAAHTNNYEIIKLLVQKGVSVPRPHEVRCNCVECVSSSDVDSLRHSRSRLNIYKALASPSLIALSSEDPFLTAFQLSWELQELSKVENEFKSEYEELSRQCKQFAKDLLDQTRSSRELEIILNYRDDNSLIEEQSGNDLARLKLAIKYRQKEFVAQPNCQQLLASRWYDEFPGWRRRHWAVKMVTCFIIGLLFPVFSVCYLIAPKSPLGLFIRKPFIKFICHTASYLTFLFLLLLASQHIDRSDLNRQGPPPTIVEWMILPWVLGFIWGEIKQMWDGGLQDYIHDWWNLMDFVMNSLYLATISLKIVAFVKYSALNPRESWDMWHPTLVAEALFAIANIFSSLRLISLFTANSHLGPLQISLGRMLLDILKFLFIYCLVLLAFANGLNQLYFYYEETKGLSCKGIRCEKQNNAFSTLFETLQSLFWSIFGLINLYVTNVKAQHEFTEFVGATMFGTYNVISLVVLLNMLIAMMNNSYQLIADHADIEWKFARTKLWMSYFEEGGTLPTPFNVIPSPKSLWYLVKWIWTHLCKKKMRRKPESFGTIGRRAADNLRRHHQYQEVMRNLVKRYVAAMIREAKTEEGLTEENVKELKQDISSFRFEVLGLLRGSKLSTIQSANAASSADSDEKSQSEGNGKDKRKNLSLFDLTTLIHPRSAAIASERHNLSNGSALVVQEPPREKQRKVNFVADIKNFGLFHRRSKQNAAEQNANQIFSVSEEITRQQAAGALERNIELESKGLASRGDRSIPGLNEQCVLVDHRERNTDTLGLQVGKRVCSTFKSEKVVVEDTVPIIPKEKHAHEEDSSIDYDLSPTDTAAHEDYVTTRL

[11] = molecular target: T2, Short transient receptor potential channel 4; assay: mouse TRPC4 channel activators, dose response, cell-based, HEK293 TRPC4/mu-opioid, Fluo-4 calcium (AID 434937); type: functional

Chain of Cytochrome P450 3A4 (P08684 whole entry): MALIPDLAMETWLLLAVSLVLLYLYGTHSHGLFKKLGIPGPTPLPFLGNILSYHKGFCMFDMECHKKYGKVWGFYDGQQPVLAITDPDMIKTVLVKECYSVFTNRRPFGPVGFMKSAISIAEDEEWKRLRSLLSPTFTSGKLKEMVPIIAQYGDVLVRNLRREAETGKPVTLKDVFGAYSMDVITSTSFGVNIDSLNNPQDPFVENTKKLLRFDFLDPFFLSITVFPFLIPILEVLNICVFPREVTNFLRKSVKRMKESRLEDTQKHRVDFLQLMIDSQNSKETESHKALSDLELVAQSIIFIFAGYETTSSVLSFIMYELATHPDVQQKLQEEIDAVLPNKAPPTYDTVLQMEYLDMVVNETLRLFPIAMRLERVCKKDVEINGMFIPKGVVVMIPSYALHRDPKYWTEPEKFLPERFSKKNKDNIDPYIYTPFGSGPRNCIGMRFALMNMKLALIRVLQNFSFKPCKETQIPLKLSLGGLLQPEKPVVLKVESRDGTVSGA
Chain of Cytochrome P450 2C9 (P11712 whole entry): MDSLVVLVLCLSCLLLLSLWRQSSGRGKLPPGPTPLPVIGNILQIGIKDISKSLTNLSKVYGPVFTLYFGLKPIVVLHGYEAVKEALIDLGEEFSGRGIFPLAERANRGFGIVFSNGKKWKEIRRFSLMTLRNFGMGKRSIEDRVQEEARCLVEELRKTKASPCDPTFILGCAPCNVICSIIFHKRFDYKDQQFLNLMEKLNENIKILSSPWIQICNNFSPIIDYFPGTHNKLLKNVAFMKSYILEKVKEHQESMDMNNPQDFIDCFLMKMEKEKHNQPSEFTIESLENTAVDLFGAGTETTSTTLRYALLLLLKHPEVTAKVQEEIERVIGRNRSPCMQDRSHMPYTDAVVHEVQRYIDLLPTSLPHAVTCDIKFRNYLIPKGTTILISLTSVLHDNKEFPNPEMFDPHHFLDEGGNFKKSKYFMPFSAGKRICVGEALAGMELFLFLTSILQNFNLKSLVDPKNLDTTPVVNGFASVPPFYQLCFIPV

AC50 [1]: 40.5 µM (active)
Compound: c1ccc2c3nc[nH]c(N4CCN(C5CCCCC5)CC4)c-3nc2c1

AC50 [3]: inconclusive
Compound: CC(=O)O[C@]1(C(C)=O)CC[C@@H]2[C@@H]3C=C(Cl)C4=CC(=O)[C@H]5C[C@@H]5[C@]4(C)[C@H]3CC[C@]21C
AC50 [2]: 15.8 µM (inconclusive) and 31.6 µM (inconclusive)

Compound: O=C(OCc1ccccc1)c1ccc(NCc2cc(O)ccc2O)cc1
AC50 [4]: 22 µM (active) | AC50 [5]: 8.63 µM (active) | AC50 [6]: 0.711 µM (active) | AC50 [7]: 3.87 µM (active)

Compound: CC1CCCC(C)N1CCCNC(=O)c1nn(C)c2c1CSc1ccccc1-2 (centres undefined)
AC50 [8]: > 70 µM (inactive)

AC50 [3]: inconclusive
Compound: Cn1cccc1C(=O)N1CCC2(CCN(C(=O)Nc3ccccc3)CC2)CC1

Compound: Cc1noc2ncnc(Sc3c(Cl)cccc3Cl)c12
IC50 [9]: 4.6 µM (active)

EC50 [10]: 0.473 µM (active) | EC50 [11]: 0.749 µM (active)
Compound: Cc1ccc(COn2c(-c3ccc(Cl)cc3Cl)nc3ncccc32)cc1

AC50 [5]: 4.01 µM (active)
Compound: Cc1cc(C)c2c(N=NN3CCCCC3)[nH]nc2n1

AC50 [3]: inconclusive
Compound: O=C(NCc1ccccc1)c1ccc2c(c1)C(=O)N(CC1CCCO1)C2=O (centres undefined)

Reference: ChEMBL document CHEMBL1201862, “PubChem BioAssay data set” (2004)
